Test results from PubChem BioAssay (NCI).
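Each compound was tested at five concentrations against cells in 96-well plates for 48 hours. Abbreviation: GI50, concentration required for 50% inhibition of growth. TGI: total growth inhibition.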

Legend:
Experiment in all cases: growth of human tumour cells (NCI), 48 h
[1] = test system: HS 578T breast
[2] = test system: OVCAR-3 ovarian
[3] = test system: SK-MEL-28 melanoma
[4] = test system: SN12C renal
[5] = test system: IGROV1 ovarian
[6] = test system: COLO 205 colon
[7] = test system: SR leukemia

SMILES	GI50 [1] [µM]	TGI [1] [µM]	GI50 [2] [µM]	TGI [2] [µM]	GI50 [3] [µM]	TGI [3] [µM]	GI50 [4] [µM]	TGI [4] [µM]	GI50 [5] [µM]	TGI [5] [µM]	GI50 [6] [µM]	TGI [6] [µM]	GI50 [7] [µM]	TGI [7] [µM]
O=[N+]([O-])c1ccc2c(c1)C(c1ccccc1Cl)=Nc1cn[nH]c1N2	7.76	> 25	14.1	> 25	> 23.7	> 25	19.8	> 25	> 23.5	> 25	9.43	> 25	15.2	> 25
CC(C)S(=O)(=O)c1ccccc1Nc1nc(Nc2cccc(NC(=O)CN)c2)ncc1Cl	0.161	1.11	0.158	3.75	0.406	2.25	0.21	6.66	0.263	12.6	0.0319	0.223	0.0101	0.423
CCCCC1(CN2CCOCC2)S/C(=N/c2nc(CC(=O)OCC)cs2)NC1=O (centres undefined)	35.8	> 100	21.2	67.7	38.4	> 100	35.8	> 100	55.3	> 100	30.1	> 100	26.2	65.9
Cc1cc2c(cc1Cl)SC(=Nc1ccc(Cl)cc1)N(S(=O)(=O)c1ccccc1)S2(=O)=O	20.7	45.9	1.55	7.11	12.2	63.5	13.8	28.7	2.55	31.7	2.89	> 100	0.342	> 100
CCc1ccccc1NC(=O)c1sc2nc3c(cc2c1N)C(=O)CCC3	0.398	> 100	0.383	16	3.71	> 100	0.729	> 100	15.5	> 100	0.291	1.06	0.406	> 100
N#CC(=NCCO)C1=C(O)c2ccccc2C1=O	–	> 100	–	> 100	–	> 100	–	> 100	–	> 100	–	> 100	–	> 100
C=CCSS/C=C/CS(=O)CC=C (centres undefined)	–	> 77.4	–	> 95.9	–	49.9	–	> 65.9	–	> 100	–	66.5	–	> 55.6
COc1ccc(OC)c2c(/C=C/c3ccc(N(C)C)cc3)ccnc12	–	> 10	–	> 10	–	> 10	–	> 10	–	> 10	–	> 10	–	–
COc1ccc(C(=O)COc2cccc(/C=C3\Oc4ccc5ccccc5c4C3=O)c2)cc1	5.39	25.8	1.78	3.54	15.3	28.7	1.76	3.85	–	–	2.45	6.94	–	–
O=C(COc1ccc(/C=C2\CSc3ccccc3C2=O)cc1)Nc1nccs1	4.29	37.2	2.17	4.25	11.8	24.1	5.8	29.8	1.38	2.67	14.1	27.1	–	–
Cc1cn2c(/C=C3\C(=O)N(C)c4ccc(O)cc43)c(C)nc2s1	5.64	40.8	2.65	17	5.15	> 100	18.3	> 100	4.26	28.7	4.29	27.5	1.98	9.91
Cc1c(C2=C(Br)C(=O)N(C)C2=O)c(=O)n(C)c(=O)n1C	–	> 100	–	> 100	–	> 100	–	> 100	–	36.5	–	34.5	–	75.9
Cc1cc(C2CC(O)C(CO)O2)cc2c(=O)[nH]c(N)nc12 (centres undefined)	> 100	> 100	> 100	> 100	> 100	> 100	> 100	> 100	71	> 100	> 100	> 100	–	–
COc1cc2c3c(n(CCCN(C)C)c(=O)c2cc1OC)-c1ccccc1C3=O	99.7	> 100	5.83	54.8	8.5	> 65	7.16	72.3	1.61	> 51.7	1.04	> 100	0.184	1.82
